# ± gives the expanded uncertainty stated by the source.
# Assays:
# [1] = Liquid; for mass density / speed of sound: 101 kPa; for speed of sound: Sing-around technique in a fixed-path interferometer; for viscosity: 101.3 kPa
# [2] = xn = mol fraction of the nth substance listed; conditions: 101 kPa, Liquid; for speed of sound: Sing-around technique in a fixed-path interferometer
smiles,measurement,setting,value
CC(=O)c1ccccc1 [acetophenone],mass density,[1]; 298.15 K,1023.1 ± 0.6 kg/m3
same,speed of sound,[1]; 298.15 K,1296.2 ± 1.3 m/s
same,viscosity,[1]; 298.15 K,1.653 ± 0.051 mPa·s
same,mass density,[1]; 308.15 K,1014.9 ± 0.6 kg/m3
same,viscosity,[1]; 308.15 K,1.411 ± 0.044 mPa·s
same,mass density,[1]; 318.15 K,1007.2 ± 0.5 kg/m3
same,viscosity,[1]; 318.15 K,1.115 ± 0.036 mPa·s
CC(=O)c1ccccc1 [acetophenone] + CCCCCCCCO,speed of sound,"[2]; 298.15 K, x2 = 0",1296.2 ± 1.3 m/s
same,speed of sound,"[2]; 298.15 K, x2 = 0.093",1278.5 ± 1.3 m/s
same,speed of sound,"[2]; 298.15 K, x2 = 0.1874",1266.5 ± 1.3 m/s
same,speed of sound,"[2]; 298.15 K, x2 = 0.2834",1263.3 ± 1.3 m/s
same,speed of sound,"[2]; 298.15 K, x2 = 0.3808",1264.7 ± 1.3 m/s
same,speed of sound,"[2]; 298.15 K, x2 = 0.4799",1271.8 ± 1.3 m/s
same,speed of sound,"[2]; 298.15 K, x2 = 0.5805",1281.8 ± 1.3 m/s
same,speed of sound,"[2]; 298.15 K, x2 = 0.6828",1295.4 ± 1.3 m/s
same,speed of sound,"[2]; 298.15 K, x2 = 0.7868",1311.1 ± 1.3 m/s
same,speed of sound,"[2]; 298.15 K, x2 = 0.8925",1327.8 ± 1.3 m/s
same,mass density,"[2]; 298.15 K, x2 = 0",1023.1 ± 0.6 kg/m3
same,viscosity,"[2]; 298.15 K, x2 = 0",1.653 ± 0.051 mPa·s
same,mass density,"[2]; 298.15 K, x2 = 0.093",997.7 ± 0.5 kg/m3
same,viscosity,"[2]; 298.15 K, x2 = 0.093",1.713 ± 0.052 mPa·s
same,mass density,"[2]; 298.15 K, x2 = 0.1874",973.7 ± 0.6 kg/m3
same,viscosity,"[2]; 298.15 K, x2 = 0.1874",1.831 ± 0.056 mPa·s
same,mass density,"[2]; 298.15 K, x2 = 0.2834",951.2 ± 0.6 kg/m3
same,viscosity,"[2]; 298.15 K, x2 = 0.2834",1.994 ± 0.06 mPa·s
same,mass density,"[2]; 298.15 K, x2 = 0.3808",929.7 ± 0.6 kg/m3
same,viscosity,"[2]; 298.15 K, x2 = 0.3808",2.205 ± 0.066 mPa·s
same,mass density,"[2]; 298.15 K, x2 = 0.4799",909.3 ± 0.7 kg/m3
same,viscosity,"[2]; 298.15 K, x2 = 0.4799",2.519 ± 0.075 mPa·s
same,mass density,"[2]; 298.15 K, x2 = 0.5805",889.8 ± 0.7 kg/m3
same,viscosity,"[2]; 298.15 K, x2 = 0.5805",2.997 ± 0.089 mPa·s
same,mass density,"[2]; 298.15 K, x2 = 0.6828",871.3 ± 0.7 kg/m3
same,viscosity,"[2]; 298.15 K, x2 = 0.6828",3.65 ± 0.11 mPa·s
same,mass density,"[2]; 298.15 K, x2 = 0.7868",853.8 ± 0.7 kg/m3
same,viscosity,"[2]; 298.15 K, x2 = 0.7868",4.475 ± 0.13 mPa·s
same,mass density,"[2]; 298.15 K, x2 = 0.8925",837.1 ± 0.8 kg/m3
same,viscosity,"[2]; 298.15 K, x2 = 0.8925",5.625 ± 0.16 mPa·s
same,mass density,"[2]; 308.15 K, x2 = 0",1014.9 ± 0.6 kg/m3
same,viscosity,"[2]; 308.15 K, x2 = 0",1.411 ± 0.044 mPa·s
same,mass density,"[2]; 308.15 K, x2 = 0.093",989.7 ± 0.5 kg/m3
same,viscosity,"[2]; 308.15 K, x2 = 0.093",1.528 ± 0.047 mPa·s
same,mass density,"[2]; 308.15 K, x2 = 0.1874",966.1 ± 0.6 kg/m3
same,viscosity,"[2]; 308.15 K, x2 = 0.1874",1.669 ± 0.051 mPa·s
same,mass density,"[2]; 308.15 K, x2 = 0.2834",943.6 ± 0.6 kg/m3
same,viscosity,"[2]; 308.15 K, x2 = 0.2834",1.785 ± 0.055 mPa·s
same,mass density,"[2]; 308.15 K, x2 = 0.3808",922.2 ± 0.6 kg/m3
same,viscosity,"[2]; 308.15 K, x2 = 0.3808",1.949 ± 0.059 mPa·s
same,mass density,"[2]; 308.15 K, x2 = 0.4799",902 ± 0.7 kg/m3
same,viscosity,"[2]; 308.15 K, x2 = 0.4799",2.167 ± 0.065 mPa·s
same,mass density,"[2]; 308.15 K, x2 = 0.5805",882.5 ± 0.7 kg/m3
same,viscosity,"[2]; 308.15 K, x2 = 0.5805",2.4 ± 0.072 mPa·s
same,mass density,"[2]; 308.15 K, x2 = 0.6828",864.1 ± 0.7 kg/m3
same,viscosity,"[2]; 308.15 K, x2 = 0.6828",2.799 ± 0.084 mPa·s
same,mass density,"[2]; 308.15 K, x2 = 0.7868",846.6 ± 0.7 kg/m3
same,viscosity,"[2]; 308.15 K, x2 = 0.7868",3.249 ± 0.097 mPa·s
same,mass density,"[2]; 308.15 K, x2 = 0.8925",829.9 ± 0.8 kg/m3
same,viscosity,"[2]; 308.15 K, x2 = 0.8925",3.931 ± 0.12 mPa·s
same,mass density,"[2]; 318.15 K, x2 = 0",1007.2 ± 0.5 kg/m3
same,viscosity,"[2]; 318.15 K, x2 = 0",1.115 ± 0.036 mPa·s
same,mass density,"[2]; 318.15 K, x2 = 0.093",982.4 ± 0.6 kg/m3
same,viscosity,"[2]; 318.15 K, x2 = 0.093",1.208 ± 0.039 mPa·s
same,mass density,"[2]; 318.15 K, x2 = 0.1874",958.9 ± 0.6 kg/m3
same,viscosity,"[2]; 318.15 K, x2 = 0.1874",1.327 ± 0.042 mPa·s
same,mass density,"[2]; 318.15 K, x2 = 0.2834",936.6 ± 0.6 kg/m3
same,viscosity,"[2]; 318.15 K, x2 = 0.2834",1.424 ± 0.045 mPa·s
same,mass density,"[2]; 318.15 K, x2 = 0.3808",915.5 ± 0.6 kg/m3
same,viscosity,"[2]; 318.15 K, x2 = 0.3808",1.535 ± 0.048 mPa·s
same,mass density,"[2]; 318.15 K, x2 = 0.4799",895.3 ± 0.7 kg/m3
same,viscosity,"[2]; 318.15 K, x2 = 0.4799",1.671 ± 0.052 mPa·s
same,mass density,"[2]; 318.15 K, x2 = 0.5805",876 ± 0.7 kg/m3
same,viscosity,"[2]; 318.15 K, x2 = 0.5805",1.807 ± 0.056 mPa·s
same,mass density,"[2]; 318.15 K, x2 = 0.6828",857.7 ± 0.7 kg/m3
same,viscosity,"[2]; 318.15 K, x2 = 0.6828",2.095 ± 0.064 mPa·s
same,mass density,"[2]; 318.15 K, x2 = 0.7868",840.2 ± 0.8 kg/m3
same,viscosity,"[2]; 318.15 K, x2 = 0.7868",2.432 ± 0.074 mPa·s
same,mass density,"[2]; 318.15 K, x2 = 0.8925",823.6 ± 0.8 kg/m3
same,viscosity,"[2]; 318.15 K, x2 = 0.8925",2.926 ± 0.088 mPa·s
CCCCCCCCO [octan-1-ol],mass density,[1]; 298.15 K,821.5 ± 0.8 kg/m3
same,speed of sound,[1]; 298.15 K,1349.2 ± 1.3 m/s
same,viscosity,[1]; 298.15 K,7.365 ± 0.2 mPa·s
same,mass density,[1]; 308.15 K,814 ± 0.8 kg/m3
same,viscosity,[1]; 308.15 K,5.251 ± 0.15 mPa·s
same,mass density,[1]; 318.15 K,807.7 ± 0.8 kg/m3
same,viscosity,[1]; 318.15 K,3.865 ± 0.12 mPa·s
CCCCCCCCO [octan-1-ol] + CC(=O)N(C)C,speed of sound,"[2]; 298.15 K, x1 = 1",1349.2 ± 1.3 m/s
same,mass density,"[2]; 298.15 K, x1 = 1",821.5 ± 0.8 kg/m3
same,viscosity,"[2]; 298.15 K, x1 = 1",7.365 ± 0.2 mPa·s
same,mass density,"[2]; 308.15 K, x1 = 1",814 ± 0.8 kg/m3
same,viscosity,"[2]; 308.15 K, x1 = 1",5.251 ± 0.15 mPa·s
same,mass density,"[2]; 318.15 K, x1 = 1",807.7 ± 0.8 kg/m3
same,viscosity,"[2]; 318.15 K, x1 = 1",3.865 ± 0.12 mPa·s
CCCCCCCCO [octan-1-ol] + CC(=O)c1ccccc1,speed of sound,"[2]; 298.15 K, x1 = 1",1349.2 ± 1.3 m/s
same,mass density,"[2]; 298.15 K, x1 = 1",821.5 ± 0.8 kg/m3
same,viscosity,"[2]; 298.15 K, x1 = 1",7.365 ± 0.2 mPa·s
same,mass density,"[2]; 308.15 K, x1 = 1",814 ± 0.8 kg/m3
same,viscosity,"[2]; 308.15 K, x1 = 1",5.251 ± 0.15 mPa·s
same,mass density,"[2]; 318.15 K, x1 = 1",807.7 ± 0.8 kg/m3
same,viscosity,"[2]; 318.15 K, x1 = 1",3.865 ± 0.12 mPa·s
CCCCCCCCO [octan-1-ol] + COCCO,speed of sound,"[2]; 298.15 K, x1 = 1",1349.2 ± 1.3 m/s
same,mass density,"[2]; 298.15 K, x1 = 1",821.5 ± 0.8 kg/m3
same,viscosity,"[2]; 298.15 K, x1 = 1",7.365 ± 0.2 mPa·s
same,mass density,"[2]; 308.15 K, x1 = 1",814 ± 0.8 kg/m3
same,viscosity,"[2]; 308.15 K, x1 = 1",5.251 ± 0.15 mPa·s
same,mass density,"[2]; 318.15 K, x1 = 1",807.7 ± 0.8 kg/m3
same,viscosity,"[2]; 318.15 K, x1 = 1",3.865 ± 0.12 mPa·s
